According to patent US10350271B2, “Lipidated peptides for lowering blood glucose” (USTAV ORGANICKE CHEMIE A BIOCHEMIE AKADEMIE VED CR, V.V.I., priority 2014, dated 2019):
Like-named read-outs stand apart in the source and are kept apart here. Square brackets hold non-standard residues; d marks the D form. Ends that are not written are not given here. Peptide text beside a SMILES is read from it. * marks the point of attachment. Palmitoyl = CCCCCCCCCCCCCCCC(=O)*; Myristoyl = CCCCCCCCCCCCCC(=O)*; X1 = CONC(=O)[C@H](Cc1ccccc1)N*; Nle = CCCC[C@H](N)C(=O)O; Sar = CNCC(=O)O

Legend:
[1] = molecular target: T1, rat PrRP receptor (Rattus norvegicus, UniProt Q64121); test: Competitive binding in RC-4B/C rat pituitary cells (125I-rat PrRP31); details: for % of PrRP31, RC-4B/C rat pituitary cells: affinity relative to PrRP31
T1 construct: host or cells: RC-4B/C rat pituitary cell line
T1 sequence (Q64121 1-370): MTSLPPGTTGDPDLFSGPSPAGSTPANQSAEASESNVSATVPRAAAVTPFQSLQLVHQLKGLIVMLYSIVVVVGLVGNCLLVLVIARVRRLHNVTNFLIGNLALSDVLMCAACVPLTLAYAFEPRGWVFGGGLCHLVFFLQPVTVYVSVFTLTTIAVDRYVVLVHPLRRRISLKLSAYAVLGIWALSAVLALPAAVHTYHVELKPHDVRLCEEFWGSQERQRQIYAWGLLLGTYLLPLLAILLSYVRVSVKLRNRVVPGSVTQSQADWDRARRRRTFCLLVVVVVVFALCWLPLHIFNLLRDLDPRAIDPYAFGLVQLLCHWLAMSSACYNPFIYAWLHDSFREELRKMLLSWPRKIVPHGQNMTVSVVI
Protocol: (§1) Competitive binding experiments were performed according to Motulsky and Neubig (Motulsky, A., et al., “Analyzing radioligand binding data,” Curr Protoc Neurosci, Chapter 7, Unit 7.5, 2002). Binding experiments were conducted with rat pituitary cells, and with Chinese Hamster Ovary (CHO) cells as follows:
The rat pituitary cell line RC-4B/C (ATCC, Manassas, USA) was grown on 24-well plates which had their bottom coated with polyethyleneimine. The cells were grown to the optimal density of 300-450 thousand cells per well. The following agents were used for the experiment: binding buffer (20 mmol·l^−1 HEPES, Ph 7.4; 118 mmol·l^−1 NaCl, 4.7 mmol·l^−1 KCl, 5 mmol·l^−1 MgCl2, 5.5 mmol·l^−1 glucose, 1 mg/ml BSA, 0.1 BPTI), unlabeled analogs of PrRP (i.e. the analog being tested) at a final concentration between 10^−11 to 10^−4 mol·l^−1, and rat ^125I-PrRP31 (labeled with radioactive Iodine-125) at a final concentration of […] (Maixnerová et al., 2011).
(§2) Plates were incubated for 60 minutes at room temperature. After incubation, the cells were solubilized in 0.1 mol/l solution of NaOH, and the radioactivity bound to the cells was counted using a γ-counter. The experiments were performed in duplicate, and repeated at least three times.
(§3) Graph Pad Prism Software (San Diego, Calif., USA) was used for evaluating the competitive binding experiments. Nonlinear regression was performed using a onsite binding model.

[2] = molecular target: T2, human PrRP receptor GPR10 (Homo sapiens, UniProt P49683); test: Competitive binding in CHO cells transfected with human GPR10 (human 125I-PrRP31); details: for % of PrRP31, GPR10 human receptor transfected in CHO cells: affinity relative to PrRP31
T2 construct: host or cells: CHO cells
T2 sequence (P49683 1-370): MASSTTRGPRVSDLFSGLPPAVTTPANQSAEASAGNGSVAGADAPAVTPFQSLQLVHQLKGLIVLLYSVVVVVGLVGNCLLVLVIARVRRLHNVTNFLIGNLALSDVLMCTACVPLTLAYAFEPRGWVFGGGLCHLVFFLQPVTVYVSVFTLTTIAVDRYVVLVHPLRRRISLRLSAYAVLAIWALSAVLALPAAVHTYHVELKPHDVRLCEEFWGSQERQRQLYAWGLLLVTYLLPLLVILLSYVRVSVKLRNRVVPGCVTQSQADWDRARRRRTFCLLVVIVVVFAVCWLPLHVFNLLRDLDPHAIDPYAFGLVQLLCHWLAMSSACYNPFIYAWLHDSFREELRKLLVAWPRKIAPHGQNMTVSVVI
Protocol: as §1
CHO cells transfected with human PrRP receptor GPR10 (Perkin Elmer, USA) were grown on 24-well plates coated with polyethyleneimine. The cells were grown to the optimal density of 40-80 thousand cells per well. The following agents were used for the experiment: binding buffer (25 mmol·l^−1 Tris, pH 7.4; 118 mmol·l^−1 NaCl, 10 mmol·l^−1 MgCl2, 10 mmol·l^−1 CaCl2, 5.5 mmol·l^−1 glucose, 0.5 mg/ml BSA), unlabeled analogs of PrRP (i.e. the analog being tested) at a final concentration between 10^−11 to 10^−4 mol·l^−1, and radiolabeled human ^125I-PrRP31 at a final concentration of 5×10^−11 mol·l^−1.
as §2, §3

[3] = CHO cells, human 125I-PrRP31, read-out: Ki, GPR10 human receptor transfected in CHO cells

Row | Compound | % of PrRP31, RC-4B/C rat pituitary cells [1] [%] | % of PrRP31, GPR10 human receptor transfected in CHO cells [2] [%] | Ki ([1]; RC-4B/C cells, displacement of 125I-rat PrRP31, read-out: Ki, RC-4B/C rat pituitary cells ^25I-rat PrRP31) [µM] | Ki [2, 3] [µM] | Ki [2] [µM]
1 | CCCC[C@H](NC(=O)CNC(=O)[C@H](CCCNC(=N)N)NC(=O)[C@@H]1CCCN1C(=O)[C@H](Cc1ccc(O)cc1)NC(=O)[C@H](Cc1c[nH]c2ccccc12)NC(=O)[C@H](Cc1c[nH]cn1)NC(=O)[C@@H](NC(=O)[C@H](CC(=O)O)NC(=O)[C@H](C)NC(=O)[C@@H]1CCCN1C(=O)[C@H](CCCNC(=N)N)NC(=O)[C@H](CCC(N)=O)NC(=O)[C@H](Cc1c[nH]cn1)NC(=O)[C@@H](N)CO)[C@@H](C)O)C(=O)N[C@@H](Cc1ccccc1)C(=O)N1CCC[C@H]1C(=O)N[C@H](C(=O)N[C@H](C(=O)NCC(=O)N[C@@H](CCCNC(=N)N)C(=O)N[C@H](C(=O)N[C@H](C(=O)N[C@@H](C)C(=O)N[C@@H](CCCNC(=N)N)C(=O)N[C@@H](CC(N)=O)C(=O)NCC(=O)N[C@@H](CCC(=O)O)C(=O)N[C@H](C(=O)N[C@@H](CO)C(=O)N[C@@H](CCCNC(=N)N)C(=O)O)C(C)C)[C@@H](C)O)[C@@H](C)CC)[C@@H](C)CC)[C@@H](C)O [Analog 19] (H-SHQRPADTHWYPRG[Nle]FPTIGRITARNGEVSR-OH; N-terminus and C-terminus assumed) | 0.00004 | – | 1320 ± 1260 | – | –
2 | CCCCCCCCCCCCCC(=O)N[C@H](C(=O)N1CCC[C@H]1C(=O)N[C@@H](CC(=O)O)C(=O)N[C@H](C(=O)N[C@@H](CC(N)=O)C(=O)N1CCC[C@H]1C(=O)N[C@@H](C)C(=O)N[C@@H](Cc1c[nH]c2ccccc12)C(=O)N[C@@H](Cc1ccc(O)cc1)C(=O)N[C@H](C(=O)NCC(=O)N[C@@H](CCCNC(=N)N)C(=O)N(C)CC(=O)N[C@H](C(=O)N[C@@H](CCCNC(=N)N)C(=O)N1CCC[C@H]1C(=O)N[C@H](C(=O)NCC(=O)N[C@@H](CCCNC(=N)N)C(=O)N[C@@H](Cc1ccccc1)C(N)=O)C(C)C)[C@@H](C)CC)[C@@H](C)O)[C@@H](C)CC)[C@@H](C)O [Analog 28] (Myristoyl-TPDINPAWYTGR[Sar]IRPVGRF-NH2) | 1541 | 125 | – | – | –
3 | TPDINPAWYTGRGARPFGRF-NH2 [Analog 31] | 0.8 | 0.7 | – | – | –
4 | SRAHQHSMETRTPDINPAWYTGRGIRPVGRF-NH2 [Rat PrRP31, reference compound] | – | – | – | – | 0.00389 ± 0.00112
5 | TPDINPAWYASRPFRPVGRF-NH2 [Analog 33] | 230 | 225 | – | – | –

Further lines, with some results ahead:

Row | % of PrRP31, RC-4B/C rat pituitary cells [1] [%] | % of PrRP31, GPR10 human receptor transfected in CHO cells [2] [%] | Ki ([1]; RC-4B/C cells, displacement of 125I-rat PrRP31, read-out: Ki, RC-4B/C rat pituitary cells ^25I-rat PrRP31) [µM] | Ki [2, 3] [µM] | Compound | Ki [2] [µM]
6 | 587 | 671 | – | – | CCCCCCCCCCCCCC(=O)N[C@H](C(=O)N1CCC[C@H]1C(=O)N[C@@H](CC(=O)O)C(=O)N[C@H](C(=O)N[C@@H](CC(N)=O)C(=O)N1CCC[C@H]1C(=O)N[C@@H](C)C(=O)N[C@@H](Cc1c[nH]c2ccccc12)C(=O)N[C@@H](Cc1ccc(O)cc1)C(=O)N[C@@H](C)C(=O)N[C@@H](CO)C(=O)N[C@@H](CCCNC(=N)N)C(=O)N1CCC[C@H]1C(=O)N[C@@H](Cc1ccccc1)C(=O)N[C@@H](CCCNC(=N)N)C(=O)N1CCC[C@H]1C(=O)N[C@H](C(=O)NCC(=O)N[C@@H](CCCNC(=N)N)C(=O)N[C@@H](Cc1ccccc1)C(N)=O)C(C)C)[C@@H](C)CC)[C@@H](C)O [Analog 34] (Myristoyl-TPDINPAWYASRPFRPVGRF-NH2) | –
7 | 1332 | 56 | – | – | CCCCCCCCCCCCCC(=O)N[C@@H](CCC(N)=O)C(=O)N[C@@H](Cc1c[nH]cn1)C(=O)N[C@@H](CO)C(=O)N[C@@H](CCSC)C(=O)N[C@@H](CCC(=O)O)C(=O)N[C@H](C(=O)N[C@@H](CCCNC(=N)N)C(=O)N[C@H](C(=O)N1CCC[C@H]1C(=O)N[C@@H](CC(=O)O)C(=O)N[C@H](C(=O)N[C@@H](CC(N)=O)C(=O)N1CCC[C@H]1C(=O)N[C@@H](C)C(=O)N[C@@H](Cc1c[nH]c2ccccc12)C(=O)N[C@@H](Cc1ccc(O)cc1)C(=O)N[C@H](C(=O)NCC(=O)N[C@@H](CCCNC(=N)N)C(=O)NCC(=O)N[C@H](C(=O)N[C@@H](CCCNC(=N)N)C(=O)N1CCC[C@H]1C(=O)N[C@H](C(=O)NCC(=O)N[C@@H](CCCNC(=N)N)C(=O)N[C@@H](Cc1ccccc1)C(N)=O)C(C)C)[C@@H](C)CC)[C@@H](C)O)[C@@H](C)CC)[C@@H](C)O)[C@@H](C)O [Analog 38] (Myristoyl-QHSMETRTPDINPAWYTGRGIRPVGRF-NH2) | –
8 | – | 92 | – | – | CCCCCCCCCCCCCCCC(=O)N[C@@H](CO)C(=O)N[C@@H](CCCNC(=N)N)C(=O)N[C@H](C(=O)N[C@@H](Cc1c[nH]cn1)C(=O)N[C@@H](CCCNC(=N)N)C(=O)N[C@@H](Cc1c[nH]cn1)C(=O)N[C@@H](CO)C(=O)N[C@@H](CCSC)C(=O)N[C@@H](CCC(=O)O)C(=O)N[C@H](C(=O)N[C@@H](CCCNC(=N)N)C(=O)N[C@H](C(=O)N1CCC[C@H]1C(=O)N[C@@H](CC(=O)O)C(=O)N[C@H](C(=O)N[C@@H](CC(N)=O)C(=O)N1CCC[C@H]1C(=O)N[C@@H](C)C(=O)N[C@@H](Cc1c[nH]c2ccccc12)C(=O)N[C@@H](Cc1ccc(O)cc1)C(=O)N[C@@H](C)C(=O)N[C@@H](CO)C(=O)N[C@@H](CCCNC(=N)N)C(=O)NCC(=O)N[C@H](C(=O)N[C@@H](CCCNC(=N)N)C(=O)N1CCC[C@H]1C(=O)N[C@H](C(=O)NCC(=O)N[C@@H](CCCNC(=N)N)C(=O)N[C@@H](Cc1ccccc1)C(=O)NOC)C(C)C)[C@@H](C)CC)[C@@H](C)CC)[C@@H](C)O)[C@@H](C)CC)[C@@H](C)O [Analog 45] (Palmitoyl-SRTHRHSMEIRTPDINPAWYASRGIRPVGR-X1) | –
9 | – | 90 | – | 0.00434 ± 0.00045 | CCCCCCCCCCCCCCCC(=O)NCCCC[C@H](NC(=O)[C@@H](NC(=O)[C@H](CC(=O)O)NC(=O)[C@@H]1CCCN1C(=O)[C@@H](N)[C@@H](C)O)[C@@H](C)CC)C(=O)N1CCC[C@H]1C(=O)N[C@@H](C)C(=O)N[C@@H](Cc1c[nH]c2ccccc12)C(=O)N[C@@H](Cc1ccc(O)cc1)C(=O)N[C@@H](C)C(=O)N[C@@H](CO)C(=O)N[C@@H](CCCNC(=N)N)C(=O)NCC(=O)N[C@H](C(=O)N[C@@H](CCCNC(=N)N)C(=O)N1CCC[C@H]1C(=O)N[C@H](C(=O)NCC(=O)N[C@@H](CCCNC(=N)N)C(=O)N[C@@H](Cc1ccccc1)C(N)=O)C(C)C)[C@@H](C)CC [Analog 49] (H-TPDIK(Palmitoyl)PAWYASRGIRPVGRF-NH2) | –
10 | – | 69 | – | 0.00564 ± 0.00035 | CCCCCCCCCCCCCCCC(=O)NCCCC[C@H](NC(=O)[C@@H]1CCCN1C(=O)[C@H](CC(N)=O)NC(=O)[C@@H](NC(=O)[C@H](CC(=O)O)NC(=O)[C@@H]1CCCN1C(=O)[C@@H](N)[C@@H](C)O)[C@@H](C)CC)C(=O)N[C@@H](Cc1c[nH]c2ccccc12)C(=O)N[C@@H](Cc1ccc(O)cc1)C(=O)N[C@@H](C)C(=O)N[C@@H](CO)C(=O)N[C@@H](CCCNC(=N)N)C(=O)NCC(=O)N[C@H](C(=O)N[C@@H](CCCNC(=N)N)C(=O)N1CCC[C@H]1C(=O)N[C@H](C(=O)NCC(=O)N[C@@H](CCCNC(=N)N)C(=O)N[C@@H](Cc1ccccc1)C(N)=O)C(C)C)[C@@H](C)CC [Analog 50] (H-TPDINPK(Palmitoyl)WYASRGIRPVGRF-NH2) | –
